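Each compound was tested at five concentrations against cells in 96-well plates for 48 hours. GI50 is the concentration that inhibits growth by half.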 Activity calls are given as the source filed them. Cut-off read from the data, not from the text of the source: active = GI50 up to about 1.1 µM and inactive = higher.
Assays:
Test in all cases: NCI tumour cell line growth inhibition, 48 h
CCRF-CEM = test system: CCRF-CEM
DU-145 = test system: DU-145
HCC 2998 = test system: HCC 2998
HCT-15 = test system: HCT-15
HL-60 = test system: HL-60
HOP-62 = test system: HOP-62
MDA-MB-435 = test system: MDA-MB-435
MOLT-4 = test system: MOLT-4
Malme-3M = test system: Malme-3M
NCI-H460 = test system: NCI-H460
NCI/ADR-RES = test system: NCI/ADR-RES
OVCAR-5 = test system: OVCAR-5
SF-268 = test system: SF-268
SF-295 = test system: SF-295
SK-MEL-2 = test system: SK-MEL-2
T47D = test system: T47D
UACC-257 = test system: UACC-257
UACC-62 = test system: UACC-62
UO-31 = test system: UO-31
NCI-H226 = test system: NCI-H226

Compound | GI50 (CCRF-CEM) | GI50 (DU-145) | GI50 (HCC 2998) | GI50 (HCT-15) [µM] | GI50 (HL-60) | GI50 (HOP-62) | GI50 (MDA-MB-435) | GI50 (MOLT-4) | GI50 (Malme-3M) | GI50 (NCI-H460) | GI50 (NCI/ADR-RES) | GI50 (OVCAR-5) | GI50 (SF-268) | GI50 (SF-295) | GI50 (SK-MEL-2) | GI50 (T47D) | GI50 (UACC-257) | GI50 (UACC-62) | GI50 (UO-31) | GI50 (NCI-H226)
CN(CCNC(=O)c1nn(-c2ccccc2)c2c1Cc1ccccc1-2)CCNC(=O)c1nn(-c2ccccc2)c2c1Cc1ccccc1-2 | 1.77 µM (inactive) | 2.59 µM (inactive) | 1.74 µM (inactive) | 1.88 | 1.32 µM (inactive) | 1.79 µM (inactive) | 1.61 µM (inactive) | 3.65 µM (inactive) | 1.82 µM (inactive) | 1.69 µM (inactive) | 2.17 µM (inactive) | 2.37 µM (inactive) | 2.02 µM (inactive) | 1.81 µM (inactive) | 1.86 µM (inactive) | 2.48 µM (inactive) | 1.79 µM (inactive) | 1.71 µM (inactive) | 1.63 µM (inactive) | –
CN(C)CCOc1ccc2[nH]c(C(=O)N3CC(CCl)c4ccc(N)cc43)cc2c1 (stereo unspecified) | 0.0381 µM (active) | 0.0323 µM (active) | 0.0535 µM (active) | 0.102 | – | 0.0356 µM (active) | 0.0871 µM (active) | < 0.01 µM (active) | 0.164 µM (active) | 0.0273 µM (active) | 0.0933 µM (active) | 0.141 µM (active) | 0.0375 µM (active) | 0.0885 µM (active) | 0.0653 µM (active) | 0.0424 µM (active) | 0.151 µM (active) | 0.0753 µM (active) | 0.065 µM (active) | 0.0776 µM (active)
O=C1c2cccc(NCCCNCCO)c2C(=O)c2cccc(NCCCNCCO)c21 | 0.701 µM (active) | 2.62 µM (inactive) | 0.9 µM (active) | 8.99 | 1.27 µM (inactive) | 1.96 µM (inactive) | 1.67 µM (inactive) | 0.769 µM (active) | – | 1.68 µM (inactive) | 13.7 µM (inactive) | 2.31 µM (inactive) | – | – | 1.85 µM (inactive) | 3.27 µM (inactive) | 6.08 µM (inactive) | 2.01 µM (inactive) | 9.59 µM (inactive) | –
COC(=O)/C(=C\c1cn(C(C)=O)c2ccccc12)P(=O)(OC)OC | 14.6 µM (inactive) | 13.4 µM (inactive) | 16.8 µM (inactive) | 14.5 | 78.5 µM (inactive) | 14.9 µM (inactive) | 21.2 µM (inactive) | 34.8 µM (inactive) | 16.7 µM (inactive) | 15 µM (inactive) | 23.8 µM (inactive) | – | 22.4 µM (inactive) | 14.9 µM (inactive) | – | 13.7 µM (inactive) | – | 11.5 µM (inactive) | 13.1 µM (inactive) | 38.4 µM (inactive)

Reference: ChEMBL document CHEMBL1201862, “PubChem BioAssay data set” (2004)
